# Numbers after ± are expanded uncertainties.
# Tests used:
# [1] = for speed of sound / viscosity / mass density: 101 kPa, Liquid; for speed of sound: Frequency=2 MHz, Linear variable-path acoustic interferometer; for viscosity: Oscillating disk viscometry; for mass density: Vibrating tube method; for Normal melting temperature: Crystal, visual observation
# [2] = xn = mol fraction of the nth substance listed; conditions: 101 kPa, Liquid, x2 = 0; for speed of sound: Frequency=2 MHz, Linear variable-path acoustic interferometer; for viscosity: Oscillating disk viscometry; for mass density: Vibrating tube method
SMILES,speed of sound ([1]; 298.15 K) [m/s],viscosity ([1]; 298.15 K) [mPa·s],mass density ([1]; 298.15 K) [kg/m3],speed of sound ([1]; 303.15 K) [m/s],viscosity ([1]; 303.15 K) [mPa·s],mass density ([1]; 303.15 K) [kg/m3],speed of sound ([1]; 308.15 K) [m/s],viscosity ([1]; 308.15 K) [mPa·s],mass density ([1]; 308.15 K) [kg/m3],speed of sound ([1]; 313.15 K) [m/s],viscosity ([1]; 313.15 K) [mPa·s],mass density ([1]; 313.15 K) [kg/m3],speed of sound ([2]; 298.15 K) [m/s],viscosity ([2]; 298.15 K) [mPa·s],mass density ([2]; 298.15 K) [kg/m3],speed of sound ([2]; 303.15 K) [m/s],viscosity ([2]; 303.15 K) [mPa·s],mass density ([2]; 303.15 K) [kg/m3],speed of sound ([2]; 308.15 K) [m/s],viscosity ([2]; 308.15 K) [mPa·s],other results
C[S+](C)[O-] [dimethyl sulfoxide],1496 ± 3,1.99 ± 0.13,1095.37 ± 1,1472 ± 3,1.8 ± 0.11,1092.41 ± 1,1460 ± 3,1.65 ± 0.1,1086.06 ± 1,1442 ± 3,1.54 ± 0.1,1081.43 ± 1,,,,,,,,,
C[S+](C)[O-] [dimethyl sulfoxide] + CC(=O)[O-].C[NH+](C)C,,,,,,,,,,,,,1496 ± 3,1.99 ± 0.13,1095.37 ± 1,1472 ± 3,1.8 ± 0.11,1092.41 ± 1,1460 ± 3,1.65 ± 0.1,mass density ([2]; 308.15 K): 1086.06 ± 1 kg/m3; speed of sound ([2]; 313.15 K): 1442 ± 3 m/s; viscosity ([2]; 313.15 K): 1.54 ± 0.1 mPa·s; mass density ([2]; 313.15 K): 1081.43 ± 1 kg/m3
C[S+](C)[O-] [dimethyl sulfoxide] + C[NH+](C)C.O=P([O-])(O)O,,,,,,,,,,,,,1496 ± 3,1.99 ± 0.13,1095.37 ± 1,1472 ± 3,1.8 ± 0.11,1092.41 ± 1,1460 ± 3,1.65 ± 0.1,mass density ([2]; 308.15 K): 1086.06 ± 1 kg/m3; speed of sound ([2]; 313.15 K): 1442 ± 3 m/s; viscosity ([2]; 313.15 K): 1.54 ± 0.1 mPa·s; mass density ([2]; 313.15 K): 1081.43 ± 1 kg/m3
C[S+](C)[O-] [dimethyl sulfoxide] + C[NH+](C)C.O=S(=O)([O-])O,,,,,,,,,,,,,1496 ± 3,1.99 ± 0.13,1095.37 ± 1,1472 ± 3,1.8 ± 0.11,1092.41 ± 1,1460 ± 3,1.65 ± 0.1,mass density ([2]; 308.15 K): 1086.06 ± 1 kg/m3; speed of sound ([2]; 313.15 K): 1442 ± 3 m/s; viscosity ([2]; 313.15 K): 1.54 ± 0.1 mPa·s; mass density ([2]; 313.15 K): 1081.43 ± 1 kg/m3
CC(=O)[O-].C[NH+](C)C [trimethylammonium acetate],1544 ± 3,2.76 ± 0.18,1053.85 ± 1,1514 ± 3,2.37 ± 0.16,1049.87 ± 1,1508 ± 3,2.06 ± 0.14,1045.81 ± 1,1490 ± 3,1.83 ± 0.12,1041.7 ± 1,,,,,,,,,
C[NH+](C)C.O=P([O-])(O)O [trimethylammonium dihydrogen phosphate],1672 ± 3,7.64 ± 0.52,1353.61 ± 1.1,1660 ± 3,6.46 ± 0.44,1350.62 ± 1.1,1661 ± 3,5.61 ± 0.37,1347.59 ± 1.1,1664 ± 3,5.07 ± 0.32,1344.52 ± 1.1,,,,,,,,,Normal melting temperature [1]: 116.00 ± 1 °C
C[NH+](C)C.O=S(=O)([O-])O [trimethylammonium hydrogen sulfate],1564 ± 3,5.1 ± 0.33,1467.58 ± 1.2,1560 ± 3,4.48 ± 0.29,1463.57 ± 1.2,1556 ± 3,3.94 ± 0.27,1463.5 ± 1.2,1552 ± 3,3.16 ± 0.25,1455.63 ± 1.2,,,,,,,,,Normal melting temperature [1]: 129.00 ± 1 °C

# Source: the NIST ThermoML archive (doi:10.1016/j.jct.2012.11.014)
